Organism: Rattus norvegicus
Test: DrugMatrix - Regimen: Daily Repeat
Assay type: toxicity, organism-based, Sprague-Dawley
Parameters: regimen Daily Repeat, gender Male, age 6-8 weeks
Details: in vivo, po, route oral GAVAGE, vehicle .5 % CMC; for ABSOLUTE BASOPHIL / BASOPHIL / EOSINOPHIL / ERYTHROCYTE COUNT / HEMATOCRIT / HEMOGLOBIN / LEUKOCYTE COUNT / LYMPHOCYTE / MEAN CORPUSCULAR HEMOGLOBIN / MEAN CORPUSCULAR HEMOGLOBIN CONCENTRATION / MEAN CORPUSCULAR VOLUME / MONOCYTE / NEUTROPHIL / PLATELET COUNT: tissue Blood; for ALANINE AMINOTRANSFERASE / ALBUMIN / ALKALINE PHOSPHATASE / ASPARTATE AMINOTRANSFERASE / BLOOD UREA NITROGEN / CHLORIDE / CHOLESTEROL / CREATINE PHOSPHOKINASE / CREATININE / GLUCOSE / PHOSPHORUS / POTASSIUM / SODIUM / TOTAL BILIRUBIN / TOTAL PROTEIN: tissue Plasma
[1] = 0 mg/kg, 72 h, dose level Control, time 3 day
[2] = 0 mg/kg, 120 h, dose level Control, time 5 day
[3] = 100 mg/kg, 72 h, dose level Low, time 3 day
[4] = 100 mg/kg, 120 h, dose level Low, time 5 day
[5] = 390 mg/kg, 72 h, dose level High, time 3 day
[6] = 390 mg/kg, 120 h, dose level High, time 5 day

CC[C@]1(O)CC[C@H]2[C@@H]3CCC4=CCCC[C@@H]4[C@H]3CC[C@@]21C
ABSOLUTE BASOPHIL [1]: 16.7 cells/µL
BASOPHIL [1]: 0.17%
EOSINOPHIL [1]: 0.62%
ERYTHROCYTE COUNT [1]: 6.55 x10E6/uL
HEMATOCRIT [1]: 42%
HEMOGLOBIN [1]: 13.48 G/DL
LEUKOCYTE COUNT [1]: 8.79 x10E3/uL
LYMPHOCYTE [1]: 76.98%
MEAN CORPUSCULAR HEMOGLOBIN [1]: 20.57 pg
MEAN CORPUSCULAR HEMOGLOBIN CONCENTRATION [1]: 32.08 G/DL
MEAN CORPUSCULAR VOLUME [1]: 64.1 fL
MONOCYTE [1]: 2.12%
NEUTROPHIL [1]: 19%
PLATELET COUNT [1]: 1432.17 x10E3/uL
ALANINE AMINOTRANSFERASE [1]: 42.83 u/L
ALBUMIN [1]: 3.63 G/DL
ALKALINE PHOSPHATASE [1]: 328.5 u/L
ASPARTATE AMINOTRANSFERASE [1]: 78.33 u/L
BLOOD UREA NITROGEN [1]: 14.5 mg/dL
CHLORIDE [1]: 104.5 MEQ/L
CHOLESTEROL [1]: 78.67 mg/dL
CREATINE PHOSPHOKINASE [1]: 282.33 u/L
CREATININE [1]: 0.25 mg/dL
GLUCOSE [1]: 173.67 mg/dL
PHOSPHORUS [1]: 12.83 mg/dL
POTASSIUM [1]: 6.7 MEQ/L
SODIUM [1]: 145.83 MEQ/L
TOTAL BILIRUBIN [1]: 0.4 mg/dL
TOTAL PROTEIN [1]: 5.93 G/DL
ABSOLUTE BASOPHIL [2]: 28 cells/µL
BASOPHIL [2]: 0.26%
EOSINOPHIL [2]: 0.44%
ERYTHROCYTE COUNT [2]: 6.99 x10E6/uL
HEMATOCRIT [2]: 45.12%
HEMOGLOBIN [2]: 14.26 G/DL
LEUKOCYTE COUNT [2]: 9.42 x10E3/uL
LYMPHOCYTE [2]: 79.92%
MEAN CORPUSCULAR HEMOGLOBIN [2]: 20.44 pg
MEAN CORPUSCULAR HEMOGLOBIN CONCENTRATION [2]: 31.62 G/DL
MEAN CORPUSCULAR VOLUME [2]: 64.6 fL
MONOCYTE [2]: 2.2%
NEUTROPHIL [2]: 16.14%
PLATELET COUNT [2]: 1062.2 x10E3/uL
ALANINE AMINOTRANSFERASE [2]: 44 u/L
ALBUMIN [2]: 3.73 G/DL
ALKALINE PHOSPHATASE [2]: 342.6 u/L
ASPARTATE AMINOTRANSFERASE [2]: 74.17 u/L
BLOOD UREA NITROGEN [2]: 13 mg/dL
CHLORIDE [2]: 103 MEQ/L
CHOLESTEROL [2]: 72.83 mg/dL
CREATINE PHOSPHOKINASE [2]: 184.67 u/L
CREATININE [2]: 0.47 mg/dL
GLUCOSE [2]: 168.17 mg/dL
PHOSPHORUS [2]: 12.27 mg/dL
POTASSIUM [2]: 6.98 MEQ/L
SODIUM [2]: 147 MEQ/L
TOTAL BILIRUBIN [2]: 0.65 mg/dL
TOTAL PROTEIN [2]: 6.23 G/DL
ABSOLUTE BASOPHIL [3]: 23.3 cells/µL
BASOPHIL [3]: 0.23%
EOSINOPHIL [3]: 0.63%
ERYTHROCYTE COUNT [3]: 7.14 x10E6/uL
HEMATOCRIT [3]: 43.57%
HEMOGLOBIN [3]: 14.03 G/DL
LEUKOCYTE COUNT [3]: 12.51 x10E3/uL
LYMPHOCYTE [3]: 79.1%
MEAN CORPUSCULAR HEMOGLOBIN [3]: 19.63 pg
MEAN CORPUSCULAR HEMOGLOBIN CONCENTRATION [3]: 32.2 G/DL
MEAN CORPUSCULAR VOLUME [3]: 61 fL
MONOCYTE [3]: 2.57%
NEUTROPHIL [3]: 16.13%
PLATELET COUNT [3]: 1395 x10E3/uL
ALANINE AMINOTRANSFERASE [3]: 38 u/L
ALBUMIN [3]: 3.67 G/DL
ALKALINE PHOSPHATASE [3]: 426 u/L
ASPARTATE AMINOTRANSFERASE [3]: 66.33 u/L
BLOOD UREA NITROGEN [3]: 10.33 mg/dL
CHLORIDE [3]: 103.33 MEQ/L
CHOLESTEROL [3]: 51 mg/dL
CREATINE PHOSPHOKINASE [3]: 235.33 u/L
CREATININE [3]: 0.33 mg/dL
GLUCOSE [3]: 164.33 mg/dL
PHOSPHORUS [3]: 12.4 mg/dL
POTASSIUM [3]: 6.67 MEQ/L
SODIUM [3]: 145 MEQ/L
TOTAL BILIRUBIN [3]: 0.47 mg/dL
TOTAL PROTEIN [3]: 6 G/DL
ABSOLUTE BASOPHIL [4]: 56.7 cells/µL
BASOPHIL [4]: 0.47%
EOSINOPHIL [4]: 0.23%
ERYTHROCYTE COUNT [4]: 6.95 x10E6/uL
HEMATOCRIT [4]: 44.83%
HEMOGLOBIN [4]: 14.17 G/DL
LEUKOCYTE COUNT [4]: 12.16 x10E3/uL
LYMPHOCYTE [4]: 86.2%
MEAN CORPUSCULAR HEMOGLOBIN [4]: 20.37 pg
MEAN CORPUSCULAR HEMOGLOBIN CONCENTRATION [4]: 31.6 G/DL
MEAN CORPUSCULAR VOLUME [4]: 64.47 fL
MONOCYTE [4]: 2%
NEUTROPHIL [4]: 10.03%
PLATELET COUNT [4]: 1290.67 x10E3/uL
ALANINE AMINOTRANSFERASE [4]: 38.67 u/L
ALBUMIN [4]: 3.67 G/DL
ALKALINE PHOSPHATASE [4]: 360 u/L
ASPARTATE AMINOTRANSFERASE [4]: 55 u/L
BLOOD UREA NITROGEN [4]: 10.67 mg/dL
CHLORIDE [4]: 99 MEQ/L
CHOLESTEROL [4]: 42 mg/dL
CREATINE PHOSPHOKINASE [4]: 164 u/L
CREATININE [4]: 0.2 mg/dL
GLUCOSE [4]: 173.33 mg/dL
PHOSPHORUS [4]: 12.6 mg/dL
POTASSIUM [4]: 7.33 MEQ/L
SODIUM [4]: 147 MEQ/L
TOTAL BILIRUBIN [4]: 0.33 mg/dL
TOTAL PROTEIN [4]: 6.1 G/DL
ABSOLUTE BASOPHIL [5]: 36.7 cells/µL
BASOPHIL [5]: 0.27%
EOSINOPHIL [5]: 0.43%
ERYTHROCYTE COUNT [5]: 7 x10E6/uL
HEMATOCRIT [5]: 42.77%
HEMOGLOBIN [5]: 14.3 G/DL
LEUKOCYTE COUNT [5]: 13.01 x10E3/uL
LYMPHOCYTE [5]: 77.23%
MEAN CORPUSCULAR HEMOGLOBIN [5]: 20.43 pg
MEAN CORPUSCULAR HEMOGLOBIN CONCENTRATION [5]: 33.43 G/DL
MEAN CORPUSCULAR VOLUME [5]: 61.2 fL
MONOCYTE [5]: 2.47%
NEUTROPHIL [5]: 18%
PLATELET COUNT [5]: 1291 x10E3/uL
ALANINE AMINOTRANSFERASE [5]: 42.67 u/L
ALBUMIN [5]: 3.6 G/DL
ALKALINE PHOSPHATASE [5]: 336.67 u/L
ASPARTATE AMINOTRANSFERASE [5]: 63.33 u/L
BLOOD UREA NITROGEN [5]: 11.33 mg/dL
CHLORIDE [5]: 102.33 MEQ/L
CHOLESTEROL [5]: 36.33 mg/dL
CREATINE PHOSPHOKINASE [5]: 193 u/L
CREATININE [5]: 0.4 mg/dL
GLUCOSE [5]: 166 mg/dL
PHOSPHORUS [5]: 11.2 mg/dL
POTASSIUM [5]: 6.37 MEQ/L
SODIUM [5]: 145.67 MEQ/L
TOTAL BILIRUBIN [5]: 0.63 mg/dL
TOTAL PROTEIN [5]: 5.87 G/DL
ABSOLUTE BASOPHIL [6]: 200 cells/µL
BASOPHIL [6]: 1.57%
EOSINOPHIL [6]: 0.97%
ERYTHROCYTE COUNT [6]: 8.29 x10E6/uL
HEMATOCRIT [6]: 52.23%
HEMOGLOBIN [6]: 16.3 G/DL
LEUKOCYTE COUNT [6]: 13.36 x10E3/uL
LYMPHOCYTE [6]: 79.5%
MEAN CORPUSCULAR HEMOGLOBIN [6]: 19.77 pg
MEAN CORPUSCULAR HEMOGLOBIN CONCENTRATION [6]: 31.27 G/DL
MEAN CORPUSCULAR VOLUME [6]: 63.17 fL
MONOCYTE [6]: 1.77%
NEUTROPHIL [6]: 14.97%
PLATELET COUNT [6]: 1359.67 x10E3/uL
ALANINE AMINOTRANSFERASE [6]: 31 u/L
ALBUMIN [6]: 4.13 G/DL
ALKALINE PHOSPHATASE [6]: 287.67 u/L
ASPARTATE AMINOTRANSFERASE [6]: 54.67 u/L
BLOOD UREA NITROGEN [6]: 14 mg/dL
CHLORIDE [6]: 104.33 MEQ/L
CHOLESTEROL [6]: 60 mg/dL
CREATINE PHOSPHOKINASE [6]: 166 u/L
CREATININE [6]: 0.37 mg/dL
GLUCOSE [6]: 151.33 mg/dL
PHOSPHORUS [6]: 11.3 mg/dL
POTASSIUM [6]: 7 MEQ/L
SODIUM [6]: 155 MEQ/L
TOTAL BILIRUBIN [6]: 0.4 mg/dL
TOTAL PROTEIN [6]: 7.07 G/DL
